Reference: US20220347253A1, “HEALTH FOOD AND COSMETICS FOR INCREASING THE AMOUNT OF APOPTOSIS CELLS AND DECREASING THE AMOUNT OF NECROSIS CELLS AND A METHOD OF MANUFACTURING A SPROUT-FORCING GRAPE SEED-DERIVED INGREDIENT FOR INCREASING THE AMOUNT OF APOPTOSIS CELLS AND DECREASING THE AMOUNT OF NECROSIS CELLS” (priority 2017, published 2022)

How the values were obtained:
[1] = system: budding yeast (Saccharomyces cerevisiae); conditions: cited from earlier work
Normal human fibroblasts [2] = assay: Amount of necrosis cells (EthD-III staining); format: cell-based; conditions: for amount of the necrosis cells compared to the Control: Control = 100%, Comparative Example 1 = 0.0023 wt % resveratrol
Description: Example 1: a basal medium comprising 0.002 wt % of grape seed-derived anti-aging ingredients of the present invention. Example 2: a basal medium comprising 0.01 wt % of grape seed-derived anti-aging ingredients of the present invention. Example 3: a basal medium comprising 0.05 wt % of grape seed-derived anti-aging ingredients of the present invention. Comparative Example 1: a basal medium containing 0.0023 wt % of resveratrol. Control: a basal medium (comprising no grape seed-derived anti-aging ingredients of the present invention nor resveratrol). […] The amount of the necrosis cells was measured using an ethidium homodimer III (EthD-III) which has been conventionally used as a necrosis marker. In more detail, EthD-III is a film-impermeable nucleic acid probe and the amount of the necrosis cells was measured by using its property that neither the viable cells nor the apoptosis cells are stained but the necrosis cells are stained in strong red with EthD-III. After removing the culture supernatant of a normal human fibroblast cultured in Example 2, the normal human fibroblast was washed twice with PBS (NISSUI PHARMACEUTICAL CO., LTD., product No.: 05913). To the washed normal human fibroblast were added a 1×Binding Buffer containing a 1000-fold diluted Hoechist 33342 solution (DOJINDO LABORATORIES, product No.: 346-079511), a 20-fold diluted FITC-Annexin V, and a 20-fold diluted EthD-III. Then, the normal human fibroblast was cultured at 37° C. for 30 minutes. Then, after removing culture supernatant, the normal human fibroblast was washed twice in the 1×Binding Buffer. New 1×Binding Buffer was added to the normal human fibroblast after the washing, and images of nuclear staining (viable cell), Annexin V staining (apoptosis), and an EthD-III staining (necrosis) were taken by a fluorescence microscope. The amount of apoptosis cells and the amount of necrosis cells were calculated from the fluorescent observation images. Furthermore, FITC-Annexin V, EthD-III and 1×Binding Buffer used in Examples were from Apoptotic/Necrotic/Healthy Cells Detection Kit (Takara Bio, Inc. product No.: D25517).

Normal human fibroblasts [3] = assay: Amount of mitochondria (Mito Tracker Mitochondrion-Selective Probes); format: cell-based; conditions: for amount of mitochondria relative to Control: Control = 100%, Example 1/2/3 = 0.002/0.01/0.05 wt % ingredient, Comparative Example 1 = 0.0023 wt % resveratrol
Description: Example 1: a basal medium comprising 0.002 wt % of grape seed-derived anti-aging ingredients of the present invention. Example 2: a basal medium comprising 0.01 wt % of grape seed-derived anti-aging ingredients of the present invention. Example 3: a basal medium comprising 0.05 wt % of grape seed-derived anti-aging ingredients of the present invention. Comparative Example 1: a basal medium containing 0.0023 wt % of resveratrol. Control: a basal medium (comprising no grape seed-derived anti-aging ingredients of the present invention nor resveratrol). The amount of mitochondria was measured using Mito Tracker Mitochondrion-Selective Probes (Invitrogen, product No.: M7512) which can selectively label mitochondria in a cell. After removing culture supernatants of normal human fibroblasts cultured in Example 2, normal human fibroblasts were washed twice with PBS (Nissui Pharmaceutical Co., Ltd., product No.: 05913). To the washed cells were added a basal medium comprising a 1000-fold diluted Hoechist 33342 solution (DOJINDO LABORATORIES, product No.: 346-07951) and a 2000-fold diluted Mito Tracker Mitochondrion-Selective Probes (Invitrogen, product No.: M7512), and normal human fibroblasts were cultured at 37° C. for 30 minutes. After the culture, culture supernatants were removed and normal human fibroblasts were washed twice with PBS (Nissui Pharmaceutical Co., Ltd., product No.: 05913). After wash, PBS (Nissui Pharmaceutical Co., Ltd., product No.: 05913) was newly added to the normal human fibroblasts, and nuclei staining (living cells) and stained images of mitochondria were taken by a fluorescence microscope (Keyence Corporation, product No.: BZ-[…]). Subsequently, each fluorescence intensity was measured using a fluorescent plate reader (Thermo Fisher Scientific, product No.: VARIOSKAN FLASH) (Hoechis: excitation wavelength 356 nm, fluorescence wavelength 465 nm, Mito Tracker: excitation wavelength 579 nm, fluorescence wavelength 599 nm).

Normal human fibroblasts [4] = assay: Workload of a certain amount of mitochondria (MTT assay); format: cell-based; conditions: for workload of a certain amount of mitochondria relative to Control: Control = 100%, Example 1/2/3 = 0.002/0.01/0.05 wt % ingredient, Comparative Example 1 = 0.0023 wt % resveratrol
Description: Example 1: a basal medium comprising 0.002 wt % of grape seed-derived anti-aging ingredients of the present invention. Example 2: a basal medium comprising 0.01 wt % of grape seed-derived anti-aging ingredients of the present invention. Example 3: a basal medium comprising 0.05 wt % of grape seed-derived anti-aging ingredients of the present invention. Comparative Example 1: a basal medium containing 0.0023 wt % of resveratrol. Control: a basal medium (comprising no grape seed-derived anti-aging ingredients of the present invention nor resveratrol). The workload of a certain amount of mitochondria was measured by MTT assay. Since the only target of MTT assay is dehydrogenase activity of mitochondria, the result of MTT assay reflects the workload of a certain amount of mitochondria. After measuring the fluorescence intensity, supernatants were removed, and normal human fibroblasts were washed once with PBS (Nissui Pharmaceutical Co., Ltd., product No.: 05913). After the normal human fibroblasts were washed, they were replaced with PBS (100 μl/well) comprising 0.5 mg/ml of MTT (Thiazolyl Blue Tetrazolium Bromide (SIGMA, product No.: […] Subsequently, 100 μl of 0.01M HCl (SIGMA, product No.: 13-1690) and 10% SDS (Wako Pure Chemical Corporation, product No.: 191-07145) were added to each well and reacted at room temperature for 24 hours. After the reaction, formazan of MTT was resolved. After resolving formazan, absorbance was measured using a plate reader (Thermo Fisher Scientific, product No.: VARIOSKAN FLASH) (measurement wavelength 550 nm, reference wavelength 660 nm).

Normal human fibroblasts [5] = assay: Amount of apoptosis cells (FITC-Annexin V staining); format: cell-based; conditions: for amount of the apoptosis cells compared to the Control: Control = 100%, Example 1/2/3 = 0.002/0.01/0.05 wt % ingredient, Comparative Example 1 = 0.0023 wt % resveratrol
Description: Example 1: a basal medium comprising 0.002 wt % of grape seed-derived anti-aging ingredients of the present invention. Example 2: a basal medium comprising 0.01 wt % of grape seed-derived anti-aging ingredients of the present invention. Example 3: a basal medium comprising 0.05 wt % of grape seed-derived anti-aging ingredients of the present invention. Comparative Example 1: a basal medium containing 0.0023 wt % of resveratrol. Control: a basal medium (comprising no grape seed-derived anti-aging ingredients of the present invention nor resveratrol). The amount of the apoptosis cells was measured using Annexin V which has been conventionally used as an apoptosis marker. In more detail, the amount of the apoptosis cells was measured by selectively fluorescently-staining the apoptosis cells by fluorescently labeled Annexin V, using its property that Annexin V binds to phosphatidylserine often appearing on a surface of the apoptosis cells. After removing the culture supernatant of a normal human fibroblast cultured in Example 2, the normal human fibroblast was washed twice with PBS (NISSUI PHARMACEUTICAL CO., LTD., product No.: 05913). To the washed normal human fibroblast were added a 1×Binding Buffer containing a 1000-fold diluted Hoechist 33342 solution (DOJINDO LABORATORIES, product No.: 346-079511), a 20-fold diluted FITC-Annexin V, and a 20-fold diluted EthD-III. Then, the normal human fibroblast was cultured at 37° C. for 30 minutes. Then, after removing culture supernatant, the normal human fibroblast was washed twice in the 1×Binding Buffer. New 1×Binding Buffer was added to the normal human fibroblast after the washing, and images of nuclear staining (viable cell), Annexin V staining (apoptosis), and an EthD-III staining (necrosis) were taken by a fluorescence microscope. The amount of apoptosis cells and the amount of necrosis cells were calculated from the fluorescent observation images. Furthermore, FITC-Annexin V, EthD-III and 1×Binding Buffer used in Examples were from Apoptotic/Necrotic/Healthy Cells Detection Kit (Takara Bio, Inc. product No.: D25517).

Normal human fibroblasts [6] = assay: Test for confirming anti-aging effect: amount of senescent cells by SA-β-gal (SPiDER-βGal) staining; format: cell-based; conditions: for amount of the senescent cells relative to Control: Control = 100%, Example 1/2/3 = 0.002/0.01/0.05 wt % ingredient, Comparative Example 1 = 0.0023 wt % resveratrol
Method: Subsequent to initiation, Normal human fibroblasts (KURABO INDUSTRIES LTD., product No.: KF-4109) were cultured in a basal medium (DMEM (Nacalai Tesque, Inc., product No.: 08456-65)), 10% FBS (BioWest, product No.: S1820, Lot No. 516536), and 1% antibiotic (penicillin-streptomycin mixed solution (Nacalai Tesque, Inc., product No.: 26253-84)) in a CO2 incubator (5% CO2, 37° C.) until a required number of cells were obtained. […] After the resolution, Example and Comparative Example resolved in a basal medium were centrifuged respectively (120,000 rpm (2,000 s^-1), 10 minutes) to remove insoluble materials. After the centrifugal separation, supernatant was collected, filtered and sterilized through a sterilizing filter to be used for each test. Anti-aging effect of Example and Comparative Example was tested by measuring an activity of β-galactosidase (senescence-associated β-galactosidase; SA-β-gal) generally used as a cell aging marker. Normal human fibroblasts prepared with a basal medium was seeded on a 96-well plate so as to be 1×10^4 cells/0.1 ml/well (black plate for fluorescence observation (Sumitomo Bakelite Co., Ltd. product No.: MS-8096F)) and cultured for 24 hours. After the culture, culture supernatants were respectively replaced with the below mediums with different conditions, and normal human fibroblasts were cultured again. The conditions for each medium are as follows. Each cell cultured with mediums with each condition are referred to as Examples 1-3, Comparative Example 1, and Control respectively. Example 1: a basal medium comprising 0.002 wt % of grape seed-derived anti-aging ingredients of the present invention. Example 2: a basal medium comprising 0.01 wt % of grape seed-derived anti-aging ingredients of the present invention. Example 3: a basal medium comprising 0.05 wt % of grape seed-derived anti-aging ingredients of the present invention. Comparative Example 1: a basal medium containing 0.0023 wt % of resveratrol. Control: a basal medium (comprising no grape seed-derived anti-aging ingredients of the present invention nor resveratrol). Normal human fibroblasts were cultured respectively with the conditions for up to 21 days. The mediums were exchanged every 2 to 3 days. After the culture, culture supernatants were removed and the cells were washed twice with PBS (Nissui Pharmaceutical Co., Ltd., product No.: 05913). […] After wash, the basal medium was added to normal human fibroblasts, and nuclei staining (living cells) and stained images of the senescent cells were taken by a fluorescence microscope (Keyence Corporation, product No.: BZ-[…]). The amount of the senescent cells were calculated based on the respective fluorescent images. […]

male and female mouse = conditions: cited from earlier work

Oc1ccc(/C=C/c2cc(O)cc(O)c2)cc1 [Comparative Example 1, trans-3,4′,5-trihydroxy-stillbene]
extension of the life span of the budding yeast [1]: 70% | effect on the amount of the necrosis cells, in words (Normal human fibroblasts [2]; 7 to 21 days of culture): increasing the amount of the necrosis cells in all the periods | necrosis cells at higher concentration, in words (Normal human fibroblasts [2]; concentration of resveratrol more than 0.0023 wt %): necrosis cells increase too much | amount of the necrosis cells compared to the Control (Normal human fibroblasts [2]; cultured for 7 days): 125% | amount of the necrosis cells compared to the Control (Normal human fibroblasts [2]; cultured for 14 days (FIG. 5B), Example 1/2/3 = 0.002/0.01/0.05 wt % ingredient): 801% | amount of the necrosis cells compared to the Control (Normal human fibroblasts [2]; cultured for 21 days, Example 1/2/3 = 0.002/0.01/0.05 wt % ingredient): 608% | effect on the amount of mitochondria, in words (Normal human fibroblasts [3]; 7 to 21 days of culture): increasing an amount of mitochondria | amount of mitochondria relative to Control (Normal human fibroblasts [3]; cultured for 7 days): 191% | amount of mitochondria relative to Control (Normal human fibroblasts [3]; cultured for 14 days): 228% | effect on the workload of a certain amount of mitochondria, in words (Normal human fibroblasts [4]; 7 to 21 days of culture): decreasing the workload of a certain amount of mitochondria | workload of a certain amount of mitochondria relative to Control (Normal human fibroblasts [4]; cultured for 7 days): 22% | workload of a certain amount of mitochondria relative to Control (Normal human fibroblasts [4]; cultured for 14 days): 20% | workload of a certain amount of mitochondria relative to Control (Normal human fibroblasts [4]; cultured for 21 days): 49% | effect on the amount of the apoptosis cells, in words (Normal human fibroblasts [5]; 7 to 21 days of culture): increasing the amount of the apoptosis cells | amount of the apoptosis cells compared to the Control (Normal human fibroblasts [5]; cultured for 7 days): 2184% | amount of the apoptosis cells compared to the Control (Normal human fibroblasts [5]; cultured for 14 days): 1400% | amount of the apoptosis cells compared to the Control (Normal human fibroblasts [5]; cultured for 21 days): 4525% | amount of senescent cells versus Control, in words (Normal human fibroblasts [6]; cells cultured for 7 days): more senescent cells among cells cultured for 7 days than Control | amount of the senescent cells relative to Control (Normal human fibroblasts [6]; cultured for 7 days): 519% | amount of the senescent cells relative to Control (Normal human fibroblasts [6]; cultured for 14 days): 102% | amount of the senescent cells relative to Control (Normal human fibroblasts [6]; cultured for 21 days): 64% | effect on life span of mice, in words (male and female mouse): does not extend the life span
